Laboratory results as given in US7018642B2 (The Procter & Gamble Company, priority 2001, dated 2006).

Legend:
Type in all cases: cell-based
[1] = tested on: P. aeruginosa strain PAO1; experiment: Improved biofilm dispersion screen (already-formed biofilms, crystal violet); conditions: Pseudomonas aeruginosa, 30 mM NaOH step, positive = dispersion, negative = enhancement of pre-existing biofilm, quadruplicate, read-out: average percentage reduction of biofilm relative to the two control values (dispersion)
How it was run: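 Biofilms pre-grown 24 h without compound, then given fresh medium with compound at 390 μM for another 22–26 h. NaOH wash in PBS (0 mM S. epidermidis, 20 mM P. fluorescens, 30 mM P. aeruginosa; 30 min, room temperature), then crystal violet staining. Percent biofilm reduction calculated against t0 and DMSO t24 controls, quadruplicates; negative values mean enhancement.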

[2] = tested on: P. aeruginosa strain PAO1; experiment: Biofilm prevention screen (96-well microplate, crystal violet); conditions: Pseudomonas aeruginosa, positive = prevention, negative = enhancement of biofilm formation, quadruplicate, read-out: average percentage reduction of biofilm formed relative to DMSO controls
How it was run: (§1)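 Three strains in 96-well round-bottom plates, compound at 250–500 μM, 160 μM or 32 μM, 16–26 h at 200 rpm (30° C Pseudomonas, 37° C staphylococcus). Staining: CV 45 min at room temperature, ethanol extraction, A586. Reported as % biofilm reduction vs DMSO, n = 4.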

[3] = tested on: P. fluorescens strain ATCC 13525; experiment: as above; conditions: Pseudomonas fluorescens, positive = prevention, negative = enhancement of biofilm formation, quadruplicate, read-out: average percentage reduction of biofilm formed relative to DMSO controls; for inhibition at 32 µM: ATCC13525, 32 μM; for inhibition at 160 µM: ATCC13525, 160 μM; for inhibition at 390 µM: ATCC13525, 390 μM
How it was run: as §1

[4] = tested on: S. epidermidis strain ATCC 35984; experiment: as above; conditions: Staphylococcus epidermidis, positive = prevention, negative = enhancement of biofilm formation, quadruplicate, read-out: average percentage reduction of biofilm formed relative to DMSO controls; for inhibition at 32 µM: ATCC35984, 32 μM; for inhibition at 160 µM: ATCC35984, 160 μM; for inhibition at 390 µM: ATCC35984, 390 μM
How it was run: as §1

| Structure (SMILES) | inhibition at 390 µM [1] [%] | inhibition at 32 µM [2] [%] | inhibition at 160 µM [2] [%] | inhibition at 390 µM [2] [%] | inhibition at 32 µM [3] [%] | inhibition at 160 µM [3] [%] | inhibition at 390 µM [3] [%] | inhibition at 32 µM [4] [%] | inhibition at 160 µM [4] [%] | inhibition at 390 µM [4] [%] |
| --- | --- | --- | --- | --- | --- | --- | --- | --- | --- | --- |
| CCCCCCCCCCNC(=O)[C@@H]1CCCN1 [Compound 32, L-proline n-decyl amide] | -107 | -15 | -43 | 22 | 9 | 55 | 95 | -3 | 100 | 97 |
| CCCCCCCCCCCCNC(=O)[C@@H]1CCCN1 [Compound 168] | 17 | 3 | 53 | 91 | 26 | 97 | 93 | 101 | 100 | 98 |
| O=C(NCCCCCCCCCCCCNC(=O)[C@H]1CCCN1)[C@H]1CCCN1 [Compound 226, D-proline 1,12-diaminododecane bisamide] | 7 | -23 | 96 | 95 | -19 | 10 | 69 | 24 | 101 | 100 |
